pIC50: −log10 of the molar value.
Key:
[1] = tested on: Insulin-regulated aminopeptidase (Homo sapiens); assay: Inhibition of recombinant human IRAP at 300 uM using L-AMC as substrate preincubated for 30 mins followed by substrate addition and measured after 1 hr by fluorescence based assay; conditions: time 90.0 min
[2] = target: T1, Endoplasmic reticulum aminopeptidase 1 (Homo sapiens, UniProt Q9NZ08); assay: Inhibition of recombinant human ERAP1 using L-AMC as substrate at 4 uM preincubated for 30 mins followed by substrate addition and measured after 1 hr by fluorescence based assay relative to control; conditions: time 90.0 min
[3] = target: T1, Endoplasmic reticulum aminopeptidase 1; assay: Inhibition of recombinant human ERAP1 using L-AMC as substrate at 90 uM preincubated for 30 mins followed by substrate addition and measured after 1 hr by fluorescence based assay relative to control; conditions: time 90.0 min
[4] = target: Endoplasmic reticulum aminopeptidase 2 (Homo sapiens) (UniProt Q6P179); assay: Inhibition of recombinant human ERAP2 at 90 uM using R-AMC as substrate preincubated for 30 mins followed by substrate addition and measured after 1 hr by fluorescence based assay relative to control; conditions: time 90.0 min
[5] = target: T1, Endoplasmic reticulum aminopeptidase 1; assay: Inhibition of recombinant human ERAP1 using L-AMC as substrate preincubated for 30 mins followed by substrate addition and measured after 1 hr by fluorescence based assay
[6] = target: T1, Endoplasmic reticulum aminopeptidase 1; assay: Inhibition of human ERAP1 using L-SIINFEKL as substrate by LC-MS/MS method
[7] = target: Endoplasmic reticulum aminopeptidase 2 (Homo sapiens) (UniProt Q6P179); assay: Inhibition of recombinant human ERAP2 at 300 uM using R-AMC as substrate preincubated for 30 mins followed by substrate addition and measured after 1 hr by fluorescence based assay relative to control; conditions: time 90.0 min

Sequence of Endoplasmic reticulum aminopeptidase 2 (Homo sapiens) (Q6P179 whole entry): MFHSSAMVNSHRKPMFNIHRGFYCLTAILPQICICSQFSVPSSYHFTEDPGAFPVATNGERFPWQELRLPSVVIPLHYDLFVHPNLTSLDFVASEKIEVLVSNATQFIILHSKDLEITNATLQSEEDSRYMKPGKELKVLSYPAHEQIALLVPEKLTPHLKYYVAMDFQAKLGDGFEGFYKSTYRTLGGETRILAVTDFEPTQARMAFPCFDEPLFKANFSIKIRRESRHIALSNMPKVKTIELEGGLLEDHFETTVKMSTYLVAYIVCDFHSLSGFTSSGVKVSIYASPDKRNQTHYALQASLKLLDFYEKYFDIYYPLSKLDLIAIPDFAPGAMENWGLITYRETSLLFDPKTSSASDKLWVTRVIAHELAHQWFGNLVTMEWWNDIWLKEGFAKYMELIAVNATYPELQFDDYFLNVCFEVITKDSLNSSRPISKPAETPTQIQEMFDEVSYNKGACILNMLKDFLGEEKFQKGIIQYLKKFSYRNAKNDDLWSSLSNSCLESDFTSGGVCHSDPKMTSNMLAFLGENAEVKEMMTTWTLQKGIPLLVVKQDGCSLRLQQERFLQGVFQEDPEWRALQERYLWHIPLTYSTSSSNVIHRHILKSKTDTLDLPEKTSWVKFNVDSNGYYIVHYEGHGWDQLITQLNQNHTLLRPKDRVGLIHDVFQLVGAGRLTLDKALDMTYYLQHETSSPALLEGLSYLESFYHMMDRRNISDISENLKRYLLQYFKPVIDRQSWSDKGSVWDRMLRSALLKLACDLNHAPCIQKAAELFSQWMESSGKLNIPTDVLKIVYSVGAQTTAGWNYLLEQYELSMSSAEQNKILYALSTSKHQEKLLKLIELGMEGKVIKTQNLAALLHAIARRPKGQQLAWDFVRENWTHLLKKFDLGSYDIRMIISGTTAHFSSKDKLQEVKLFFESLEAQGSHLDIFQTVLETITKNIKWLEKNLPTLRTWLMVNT
T1 sequence (Q9NZ08 whole entry): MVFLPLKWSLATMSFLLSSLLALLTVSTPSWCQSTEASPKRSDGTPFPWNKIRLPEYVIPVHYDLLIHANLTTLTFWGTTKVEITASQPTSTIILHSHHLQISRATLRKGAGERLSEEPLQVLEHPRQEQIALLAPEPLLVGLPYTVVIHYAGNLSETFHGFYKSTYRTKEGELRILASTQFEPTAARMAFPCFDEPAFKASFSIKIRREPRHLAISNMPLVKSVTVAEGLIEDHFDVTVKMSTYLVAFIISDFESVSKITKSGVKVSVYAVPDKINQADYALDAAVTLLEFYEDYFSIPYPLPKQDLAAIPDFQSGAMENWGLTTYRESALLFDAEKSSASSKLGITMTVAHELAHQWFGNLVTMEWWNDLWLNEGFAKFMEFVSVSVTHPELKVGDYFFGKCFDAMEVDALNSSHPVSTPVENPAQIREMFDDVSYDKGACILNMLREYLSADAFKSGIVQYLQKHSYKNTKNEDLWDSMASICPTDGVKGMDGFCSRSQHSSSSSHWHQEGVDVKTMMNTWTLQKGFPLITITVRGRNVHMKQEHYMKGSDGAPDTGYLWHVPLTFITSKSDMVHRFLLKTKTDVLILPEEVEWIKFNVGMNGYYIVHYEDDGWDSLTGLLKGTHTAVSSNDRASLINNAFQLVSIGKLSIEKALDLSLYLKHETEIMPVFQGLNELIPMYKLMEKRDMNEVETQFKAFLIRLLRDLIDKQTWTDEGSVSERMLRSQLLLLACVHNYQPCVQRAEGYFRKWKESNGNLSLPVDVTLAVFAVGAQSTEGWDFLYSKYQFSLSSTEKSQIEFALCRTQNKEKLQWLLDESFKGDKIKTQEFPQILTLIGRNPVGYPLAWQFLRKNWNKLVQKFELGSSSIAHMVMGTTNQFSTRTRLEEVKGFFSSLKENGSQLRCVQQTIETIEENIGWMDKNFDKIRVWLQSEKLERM

Compound	inhibition [1] [%]	pIC50 [5]	other results
O=C1NC(=O)/C(=C/c2ccc(C(=O)O)cc2)N1	30	–	–
CC(C)C[C@H](NC(=O)[C@@H](O)[C@H](N)Cc1ccccc1)C(=O)O	–	–	inhibition [2]: 100%; inhibition [3]: 100%; inhibition [4]: 50%
COc1ccc(Cc2c(O)nc(S)nc2O)cc1	–	4.23	–
O=C1NC(=S)S/C1=C\c1ccc(C(=O)O)cc1	–	4.71	pIC50 [6]: 4.54
COC(=O)c1ccc(/C=C2\SC(=S)NC2=O)cc1	< 30	–	–
O=C1NC(=O)/C(=C/c2ccc(C(=O)O)cc2)S1	38	–	–
COC(=O)c1ccc(CC2SC(=S)NC2=O)cc1 (centres undefined)	< 30	–	–
O=C(O)Cc1cccc(S(=O)(=O)N2CCCC2)c1	< 30	–	–
O=c1[nH]c(=S)[nH]c(O)c1-c1ccccc1	–	4.08	–
O=C(O)c1ccc(CC2SC(=S)NC2=O)cc1 (centres undefined)	< 30	–	inhibition [7]: < 30%
O=C1NC(=O)C(Cc2ccc(C(=O)O)cc2)S1 (centres undefined)	30	–	–
Nc1[nH]cnc2nc(S)nc1-2	–	5.66	pIC50 [6]: 4.99
CN1C(=O)S/C(=C\c2ccc(C(=O)O)cc2)C1=O	47	–	–
CN1C(=O)/C(=C/c2ccc(C(=O)O)cc2)SC1=S	51	–	inhibition [7]: 43%
O=C(O)Cc1ccc(S(=O)(=O)N2CCCCC2)s1	58	–	inhibition [7]: 38%
O=C(O)Cc1ccc(S(=O)(=O)N2CCCC2)s1	62	4.57	–
